# Assay results published in ChEMBL document CHEMBL3797190, “Development of 3,5-Dinitrobenzylsulfanyl-1,3,4-oxadiazoles and Thiadiazoles as Selective Antitubercular Agents Active Against Replicating and Nonreplicating Mycobacterium tuberculosis” (J Med Chem, 2016).
# Columns and labels:
# Type in all cases: functional
# [1] = tested on: Mycobacterium tuberculosis; assay: Antimycobacterial activity against Mycobacterium tuberculosis CNCTC My 331/88 after 14 days by microdilution method; conditions: CNCTC My 331/88, 336 h
# Mycobacterium avium [2] = assay: Antimycobacterial activity against Mycobacterium avium CNCTC My 330/88 after 14 days by microdilution method; conditions: CNCTC My 330/88, 336 h
# Mycobacterium kansasii [3] = assay: Antimycobacterial activity against Mycobacterium kansasii CNCTC My 235/80 after 14 days by microdilution method; conditions: CNCTC My 235/80, 336 h
# Mycobacterium kansasii [4] = assay: Antimycobacterial activity against Mycobacterium kansasii CNCTC My 6509/96 after 14 days by microdilution method; conditions: CNCTC My 6509/96, 336 h
# [5] = tested on: Mycobacterium tuberculosis; assay: Antimycobacterial activity against Mycobacterium tuberculosis CNCTC My 331/88 after 21 days by microdilution method; conditions: CNCTC My 331/88, 504 h
# Mycobacterium avium [6] = assay: Antimycobacterial activity against Mycobacterium avium CNCTC My 330/88 after 21 days by microdilution method; conditions: CNCTC My 330/88, 504 h
# Mycobacterium kansasii [7] = assay: Antimycobacterial activity against Mycobacterium kansasii CNCTC My 235/80 after 21 days by microdilution method; conditions: CNCTC My 235/80, 504 h
# Mycobacterium kansasii [8] = assay: Antimycobacterial activity against Mycobacterium kansasii CNCTC My 6509/96 after 21 days by microdilution method; conditions: CNCTC My 6509/96, 504 h
# Mycobacterium kansasii [9] = assay: Antimycobacterial activity against Mycobacterium kansasii CNCTC My 235/80 after 7 days by microdilution method; conditions: CNCTC My 235/80, 168 h
# Mycobacterium kansasii [10] = assay: Antimycobacterial activity against Mycobacterium kansasii CNCTC My 6509/96 after 7 days by microdilution method; conditions: CNCTC My 6509/96, 168 h
SMILES,MIC99 [1],MIC99 (Mycobacterium avium [2]),MIC99 (Mycobacterium kansasii [3]),MIC99 (Mycobacterium kansasii [4]),MIC99 [5],MIC99 (Mycobacterium avium [6]),MIC99 (Mycobacterium kansasii [7]),MIC99 (Mycobacterium kansasii [8]),MIC99 (Mycobacterium kansasii [9]),MIC99 (Mycobacterium kansasii [10])
O=[N+]([O-])c1ccc(CSc2nnc(-c3ccncc3)o2)c([N+](=O)[O-])c1,8 µM,62 µM,32 µM,32 µM,8 µM,62 µM,32 µM,32 µM,16 µM,32 µM
NNC(=O)c1ccncc1 [ISONIAZID],,> 250 µM,> 250 µM,4 µM,,> 250 µM,> 250 µM,4 µM,> 250 µM,4 µM
Cc1ccc(-c2nnc(SCc3cc([N+](=O)[O-])cc([N+](=O)[O-])c3)s2)cc1,0.125 µM,> 125 µM,0.5 µM,1 µM,0.125 µM,> 125 µM,1 µM,2 µM,0.5 µM,0.5 µM
Cc1ccc(-c2nnc(SCc3cc([N+](=O)[O-])cc(C(F)(F)F)c3)o2)cc1,> 32 µM,> 500 µM,> 32 µM,> 32 µM,> 32 µM,> 500 µM,> 32 µM,> 32 µM,> 32 µM,> 32 µM
Cc1ccc(-c2nnc(SCc3cc([N+](=O)[O-])cc(C(F)(F)F)c3)s2)cc1,> 32 µM,> 500 µM,> 32 µM,> 32 µM,> 32 µM,> 500 µM,> 32 µM,> 32 µM,> 32 µM,> 32 µM
O=[N+]([O-])c1cc(CSc2nnc(-c3ccc(Cl)cc3)o2)cc(C(F)(F)F)c1,> 32 µM,> 500 µM,> 32 µM,> 32 µM,> 32 µM,> 500 µM,> 32 µM,> 32 µM,> 32 µM,> 32 µM
O=[N+]([O-])c1cc(CSc2nnc(-c3ccc(Cl)cc3)s2)cc(C(F)(F)F)c1,> 32 µM,> 500 µM,> 32 µM,> 32 µM,> 32 µM,> 500 µM,> 32 µM,> 32 µM,> 32 µM,> 32 µM
Cc1nnc(SCc2cc([N+](=O)[O-])cc([N+](=O)[O-])c2)s1,4 µM,125 µM,4 µM,8 µM,4 µM,125 µM,8 µM,16 µM,4 µM,8 µM
O=[N+]([O-])c1ccc(CSc2nnc(-c3ccc([N+](=O)[O-])cc3)s2)cc1,62 µM,250 µM,250 µM,62 µM,62 µM,250 µM,250 µM,62 µM,250 µM,62 µM
O=[N+]([O-])c1cc(CSc2nnc(C3CCCCC3)o2)cc([N+](=O)[O-])c1,≤ 0.03 µM,,,,≤ 0.03 µM,,,,,
O=[N+]([O-])c1cc(CSc2nnc(-c3ccccc3Cl)s2)cc([N+](=O)[O-])c1,0.125 µM,16 µM,1 µM,1 µM,0.125 µM,> 16 µM,1 µM,1 µM,0.5 µM,0.5 µM
